Results taken from US20260008760A1, “DIPEPTIDYL PEPTIDASE 1 INHIBITORS AND USES THEREOF” (Insmed Incorporated, priority 2024, published 2026).
Values joined by “and” are separate entries in the source; they are usually repeats but may differ in a detail not shown here. Equal entries are not always repeated. Where two headings read alike, the source gives them in different places.

What was measured:
[1] = molecular target: T1, DPP1 in HL-60 cells (Homo sapiens, UniProt P53634); experiment: DPP1 Cell Single-Point Percent Inhibition Testing; format: cell-based; parameters: host or cells: HL-60 cells; details: final compound concentration 5 nM, n = 1
T1 sequence (P53634 25-463): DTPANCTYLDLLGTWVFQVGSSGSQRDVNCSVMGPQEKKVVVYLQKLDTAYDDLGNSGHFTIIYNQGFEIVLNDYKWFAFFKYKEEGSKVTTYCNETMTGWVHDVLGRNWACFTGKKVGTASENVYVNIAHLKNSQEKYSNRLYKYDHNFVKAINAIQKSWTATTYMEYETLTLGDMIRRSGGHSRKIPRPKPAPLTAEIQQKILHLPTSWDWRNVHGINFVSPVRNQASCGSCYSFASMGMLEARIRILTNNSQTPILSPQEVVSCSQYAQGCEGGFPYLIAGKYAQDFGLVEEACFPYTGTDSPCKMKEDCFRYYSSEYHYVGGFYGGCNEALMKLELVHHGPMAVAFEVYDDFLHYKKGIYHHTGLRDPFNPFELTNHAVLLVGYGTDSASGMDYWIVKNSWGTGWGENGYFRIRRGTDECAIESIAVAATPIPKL
Method in brief: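 HL-60 cells in unsupplemented RPMI preincubated 60 min at 37 °C with test article (5 nM final, 0.1% DMSO), then given cell-permeable H-Gly-Phe-AFC (100 μM final) for 30 min. Fluorescence at 400/505 nm; percent inhibition versus vehicle after subtracting cell-free background and 10 μM brensocatib non-specific signal.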

[2] = molecular target: T2, human DPP1 enzyme (Homo sapiens, UniProt P53634); experiment: Human DPP1 Enzyme Single-Point Percent Inhibition Testing (HL-60 lysate); format: biochemical; parameters: A crude lysate of HL-60 cells (ATCC; Manassas, VA) was used as a source of human DPP1 enzyme; host or cells: HL-60 cells (crude lysate); details: final compound concentration of 10 nM, 400 μM H-Gly-Arg-AMC, n = 1
Method in brief: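 Enzyme source was HL-60 cell lysate in MES pH 6.0 buffer with NaCl and DTT, pre-incubated 10 min at 37° C with 10 nM compound (final, 1% DMSO). Cleavage of 400 μM H-Gly-Arg-AMC was followed at 350/450 nm over 90 min at 37° C, and percent inhibition was taken against vehicle wells.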
Target sequence in this assay (P53634 25-463): as above

[3] = molecular target: T2, human DPP1 enzyme; experiment: Human DPP1 Enzyme IC50 Assay; format: biochemical; parameters: was first proteolytically processed into its mature form using recombinant human cathepsin L; purchased R&D Systems
Method in brief: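 Recombinant human DPP1, pre-activated with cathepsin L (pH 4.5), was preincubated with compound 10 min at 37 °C in MES pH 6.0, 50 mM NaCl, 5 mM DTT, 1% DMSO. Cleavage of 400 μM (final) H-Gly-Arg-AMC followed by fluorescence (350/450 nm) over 90 min at 37 °C; IC50 from four-parameter logistic fit versus no-compound control.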
Target sequence in this assay (P53634 25-134 limits assumed): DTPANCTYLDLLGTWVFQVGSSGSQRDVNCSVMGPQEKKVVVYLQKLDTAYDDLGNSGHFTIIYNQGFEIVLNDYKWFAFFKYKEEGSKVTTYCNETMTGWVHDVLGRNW
Target sequence in this assay (P53634 231-394 limits assumed): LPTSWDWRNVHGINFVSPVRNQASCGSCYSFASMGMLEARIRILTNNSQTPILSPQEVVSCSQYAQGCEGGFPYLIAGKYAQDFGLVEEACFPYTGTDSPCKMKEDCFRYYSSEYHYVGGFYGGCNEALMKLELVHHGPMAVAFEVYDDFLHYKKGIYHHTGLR
Target sequence in this assay (P53634 395-463 limits assumed): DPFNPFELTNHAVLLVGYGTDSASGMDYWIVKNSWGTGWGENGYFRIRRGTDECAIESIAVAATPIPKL

[4] = molecular target: T1, DPP1 in HL-60 cells; experiment: DPP1 Cell IC50 assay; format: cell-based; parameters: host or cells: HL-60 cells; details: 60 min pre-incubation, H-Gly-Phe-AFC substrate, average of n runs
Method in brief: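 HL-60 cells in PBS (5×10^5 live cells per mL) pre-incubated with compound (0.5% DMSO) 60 min at 37° C, 5% CO2, then H-Gly-Phe-AFC substrate (500 μM stock) added for 30 min. Fluorescence at 400/505 nm; % inhibition vs vehicle wells, IC50 from four-parameter logistic fit.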

[5] = activated recombinant human DPP1, 400 μM H-Gly-Arg-AMC, 10 minutes pre-incubation at 37° C., pH 6.0, average of n runs, read-out: Avg. IC50 (Human DPP1 enzyme IC50 value ranges)
[6] = read-out: Avg. IC50 (DPP1 Cell IC50 value ranges)
[7] = Avg. IC50 (DPP1 Cell IC50 value ranges)

SMILES | inhibition at 0.005 µM [1] [%] | inhibition at 0.01 µM [2] [%] | IC50 [3, 5] | IC50 [4, 6] | IC50 [3] [nM] | IC50 [4, 7] [nM]
N#C[C@H](Cc1ccc(-c2ccc(S(=O)(=O)N3CCC3)cc2)cc1)NC(=O)[C@@H]1CNCCCO1 [Compound 19, (S)—N—((S)-2-(4′-(azetidin-1-ylsulfonyl)-[1,1′-biphenyl]-4-yl)-1-cyanoethyl)-1,4-oxazepane-2-carboxamide] | ≤ 76.5 | ≤ 40 | > 15 nM | > 2.5 nM | – | –
COC1CNC[C@@H](C(=O)N[C@H](C#N)Cc2ccc(-c3cc4c(C)nc(C)cn4c3)cc2F)OC1 (stereo partly drawn) [Compound A88] | 76.5 to 93.9 | ≥ 66.7 | < 5 nM | 1 to 2.5 nM | – | –
CO[C@H]1CCO[C@H](C(=O)N[C@H](C#N)Cc2ccc(-c3cc4c(C)nc(C)cn4c3)cc2)CNC1 [Compound A92] | ≤ 76.5 | ≤ 40 | > 15 nM | > 2.5 nM and 1 to 2.5 nM | – | –
C[C@@H]1NC[C@@H](C(=O)N[C@H](C#N)Cc2ccc(-c3ccc4c(n3)CCCN4)cc2)OC[C@@H]1O [Compound A105] | ≤ 76.5 | ≤ 40 | > 15 nM | > 2.5 nM | – | –
C[C@@H]1NC[C@@H](C(=O)N[C@H](C#N)Cc2ccc(-c3cnc4c(n3)CCCC4)cc2F)OC[C@@H]1O [Compound A109] | ≤ 76.5 | 40 to 66.7 | 5 to 15 nM and < 5 nM | > 2.5 nM and 1 to 2.5 nM | – | –
Cc1ncc(C)n2cc(-c3ccc(C[C@@H](C#N)NC(=O)[C@@H]4CNCCCCO4)cc3)cc12 [Compound A137] | 76.5 to 93.9 | ≤ 40 | > 15 nM | 1 to 2.5 nM | – | –
Cc1nc(C)c2cc(-c3ccc(C[C@@H](C#N)NC(=O)[C@@H]4CNCCCCO4)cc3)cn2c1C [Compound A138] | 76.5 to 93.9 | ≤ 40 | > 15 nM | < 1 nM | – | –
N#C[C@H](Cc1ccc(-c2ccn3ccnc3c2)cc1)NC(=O)[C@@H]1CNCCCO1 [Compound A142] | ≤ 76.5 | ≤ 40 | > 15 nM | > 2.5 nM | – | –
N#Cc1ccc2c(c1)CSc1cc(C[C@@H](C#N)NC(=O)[C@@H]3CNCCCCO3)c(F)cc1-2 [Compound B17] | ≤ 76.5 | 40 to 66.7 | 5 to 15 nM | > 2.5 nM | – | –
N#Cc1ccc2c(c1)COc1cc(C[C@@H](C#N)NC(=O)[C@@H]3CNCCCO3)c(F)cc1-2 [Compound B32] | 76.5 to 93.9 | 40 to 66.7 | – | – | 5 to 15 | 1 to 2.5
N#Cc1ccc2c(c1)-c1cc(F)c(CC(C#N)NC(=O)[C@@H]3CNCCCO3)cc1OC2 (stereo partly drawn) [Compound B33] | ≤ 76.5 | ≤ 40 | – | – | > 15 | > 2.5
Cn1c(=O)oc2cc3c(cc21)-c1cc(F)c(C[C@@H](C#N)NC(=O)[C@@H]2CNCCCCO2)cc1SC3 [Compound C8] | ≤ 76.5 | ≥ 66.7 | < 5 nM | 1 to 2.5 nM | – | –
Cn1c(=O)oc2ccc3c(c21)COc1cc(CC(C#N)NC(=O)[C@@H]2CNCCCO2)c(F)cc1-3 (stereo partly drawn) [Compound C29] | ≤ 76.5 | ≤ 40 | > 15 nM | > 2.5 nM and 1 to 2.5 nM | – | –
N#C[C@H](Cc1cc2c(cc1F)-c1cc3c(cc1CO2)COC31CCN(C2COC2)CC1)NC(=O)[C@@H]1CNCCCO1 [Compound C31] | ≤ 76.5 | ≥ 66.7 | < 5 nM | > 2.5 nM | – | –
N#C[C@H](Cc1cc2c(cc1F)-c1cc3c(cc1CO2)COC31CCN(C2COC2)CC1)NC(=O)[C@@H]1CNCCCCO1 [Compound C32] | ≤ 76.5 | ≥ 66.7 | < 5 nM | > 2.5 nM | – | –
CO[C@H]1CCO[C@H](C(=O)N[C@H](C#N)Cc2ccc(-c3ccc4c(c3)C3(CCN(C5COC5)CC3)OC4)cc2F)CNC1 [Compound F5] | ≤ 76.5 | ≥ 66.7 | < 5 nM | 1 to 2.5 nM | – | –
CO[C@@H]1CCNC[C@@H](C(=O)N[C@H](C#N)Cc2ccc(-c3ccc4c(c3)C3(CCN(C5COC5)CC3)OC4)cc2F)OC1 [Compound F6] | ≤ 76.5 | ≥ 66.7 | < 5 nM | > 2.5 nM | – | –
CCN1C(=O)Cc2ccc(-c3ccc(C[C@@H](C#N)NC(=O)[C@@H]4CNCC[C@@H](OC)CO4)c(F)c3)cc21 [Compound G2] | ≤ 76.5 | ≥ 66.7 | < 5 nM | 1 to 2.5 nM | – | –
CCN1C(=O)Cc2ccc(-c3ccc(C[C@@H](C#N)NC(=O)[C@@H]4CN[C@@H](C)[C@@H](O)CO4)cc3)cc21 [Compound G9] | ≤ 76.5 | ≤ 40 | > 15 nM | > 2.5 nM | – | –
CCN1C(=O)Cc2ccc(-c3ccc(C[C@@H](C#N)NC(=O)[C@@H]4CN[C@@H](C)[C@@H](O)CO4)c(F)c3)cc21 [Compound G10] | ≤ 76.5 | 40 to 66.7 | 5 to 15 nM | > 2.5 nM | – | –
CCN1C(=O)Cc2ccc(-c3ccc(C[C@@H](C#N)NC(=O)[C@@H]4CNCCCO4)cc3)cc21 [Compound G11] | ≤ 76.5 | ≤ 40 | > 15 nM | > 2.5 nM | – | –
CCN1C(=O)Cc2ccc(-c3ccc(C[C@@H](C#N)NC(=O)[C@@H]4CNCCCO4)c(F)c3)cc21 [Compound G12] | ≤ 76.5 | 40 to 66.7 | 5 to 15 nM | > 2.5 nM and 1 to 2.5 nM | – | –
CO[C@@H]1CCNC[C@@H](C(=O)N[C@H](C#N)Cc2ccc(-c3ccc4cnn(C)c4c3)cc2)OC1 [Compound H5] | 76.5 to 93.9 | ≥ 66.7 | 5 to 15 nM | 1 to 2.5 nM | – | –
COC1CNC[C@@H](C(=O)N[C@H](C#N)Cc2ccc(-c3ccn4ccnc4c3)cc2)OC1 (stereo partly drawn) [Compound H40] | ≤ 76.5 | 40 to 66.7 | – | – | – | –
CO[C@H]1CCO[C@H](C(=O)N[C@H](C#N)Cc2ccc(-c3ccn4ccnc4c3)cc2)CNC1 [Compound H41] | ≤ 76.5 | ≤ 40 | – | – | – | –
C[C@@H]1NC[C@@H](C(=O)N[C@H](C#N)Cc2ccc(-c3ccn4ccnc4c3)cc2)OC[C@H]1O [Compound H42] | ≤ 76.5 | ≥ 66.7 | – | – | – | –
C[C@@H]1NC[C@@H](C(=O)N[C@H](C#N)Cc2ccc(-c3ccn4ccnc4c3)cc2)OC[C@@H]1O [Compound H43] | ≤ 76.5 | ≤ 40 | – | – | – | –
N#C[C@H](Cc1ccc(-c2ccn3cnnc3c2)cc1)NC(=O)[C@@H]1CNCCCCO1 [Compound H44] | ≤ 76.5 | ≤ 40 | – | – | – | –
